IC50 and inhibition data for five molecules are collected here from ChEMBL document CHEMBL4414624, “Terpenoids from the Stems of Fissistigma polyanthoides and Their Anti-Inflammatory Activity” (J Nat Prod, 2019).

Test [1] is described as follows: (§1) Inhibition of LPS-induced NF-kappaB/AP-1 signalling cascade in human THP1-Blue-CD14 cells incubated for 24 hrs by quanti-blue SEAP assay. Format: cell-based.
The species named for a further test is Homo sapiens. Described as §1. Format: cell-based.
The nature of test [2]: Cytotoxicity against human THP1-Blue-CD14 cells assessed as reduction in cell viability after 24 hrs by CellTiter-Blue based fluorescence analysis. Background: Resazurin is reduced to fluorescent resorufin, in cell work by metabolically active cells.
Test [3] can be described thus: Cytotoxicity against LPS-stimulated human THP1-Blue-CD14 cells assessed as reduction in cell viability after 24 hrs by CellTiter-Blue based fluorescence analysis.

The term IC50 denotes the concentration that inhibits the measured activity by half. As for `CC(C)[C@@H]1CC[C@@H](C)[C@@]23CC[C@](C)(O[C@@H]4O[C@H](CO)[C@@H](O)[C@H](O)[C@H]4OC(=O)/C=C/c4ccccc4)[C@@H]2[C@@H]13`, the IC50 in test [1] amounted to 13.7 µM; in test [2] it was 29.2 µM; in test [3], 21.6 µM. Also, in the test filed under Homo sapiens, the inhibition result is “Dose-dependent effect”.

Consider `CC(C)[C@H]1CC/C2=C/C(=O)CC[C@](C)(O[C@@H]3O[C@H](CO)[C@@H](O)[C@H](O)[C@H]3OC(=O)/C=C/c3ccccc3)C[C@@H]21`, for which the IC50 in test [1] was found to be 30.7 µM; in test [2] it was 133 µM; in test [3] it was 46.4 µM. Further, the inhibition result in the test filed under Homo sapiens was “Dose-dependent effect”.

With `C=C1CC[C@@H](C(C)C)/C=C/[C@@](C)(O[C@@H]2O[C@H](CO)[C@@H](O)[C@H](O)[C@H]2OC(=O)/C=C/c2ccccc2)CCC1=O`, the IC50 came out at 49 µM in test [1] and 154 µM in test [3]. Moreover, the inhibition result in the test listed under Homo sapiens was “Dose-dependent effect”.

Turning to `CC(C)C1=CC[C@]2(C)[C@@H](O)CC[C@@](C)(O[C@@H]3O[C@H](CO)[C@@H](O)[C@H](O)[C@H]3OC(=O)/C=C/c3ccccc3)[C@H]2C1`, the IC50 in test [1] is 20.8 µM; in test [2] it was 39.1 µM; in test [3], 29.5 µM. Moreover, the inhibition entry in the test filed under Homo sapiens is “Dose-dependent effect”.

As for `C[C@@H]1CC[C@H](C(C)(C)O[C@@H]2O[C@H](CO)[C@@H](O)[C@H](O)[C@H]2OC(=O)/C=C/c2ccccc2)CC2=C1CC[C@H]2C`, the figures for the IC50 in test [1], in test [2] and in test [3] were 28.4 µM, 47.9 µM and 35.2 µM, respectively. Moreover, in the test listed under Homo sapiens, the inhibition result is “Dose-dependent effect”.
